Experimental data taken from patent US20080009418A1, “Selective Inhibitors” (Alchemia LTD., priority 2004, published 2008).

What was measured:
Human δ-opioid (DOP) = target: T1, Human δ-opioid (DOP) (Homo sapiens, UniProt P41143); assay: Radioligand binding, human δ-opioid (DOP) membranes, FlashPlate, [3H]-Bremazocine; conditions: compound at 10 μM, [3H]-Bremazocine
T1 construct: purchased Perkin Elmer Biosignal
Outline: (§1)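 Cloned human receptor membranes were coated onto FlashPlate wells and incubated with radioligand and compound (added from a 0.5 mM DMSO daughter plate) for 1 hour at room temperature in the dark. Scintillation counting gave percent inhibition, with DMSO defining total and reference ligand defining non-specific binding.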

Human κ-Opioid (KOP) = target: T2, Human κ-Opioid (KOP) (Homo sapiens, UniProt P41145); assay: Radioligand binding, human κ-opioid (KOP) membranes, filtration, [3H]-Diprenorphine; conditions: compound at 10 μM, [3H]-Diprenorphine
T2 construct: purchased Perkin Elmer Biosignal
T2 sequence (P41145 whole entry): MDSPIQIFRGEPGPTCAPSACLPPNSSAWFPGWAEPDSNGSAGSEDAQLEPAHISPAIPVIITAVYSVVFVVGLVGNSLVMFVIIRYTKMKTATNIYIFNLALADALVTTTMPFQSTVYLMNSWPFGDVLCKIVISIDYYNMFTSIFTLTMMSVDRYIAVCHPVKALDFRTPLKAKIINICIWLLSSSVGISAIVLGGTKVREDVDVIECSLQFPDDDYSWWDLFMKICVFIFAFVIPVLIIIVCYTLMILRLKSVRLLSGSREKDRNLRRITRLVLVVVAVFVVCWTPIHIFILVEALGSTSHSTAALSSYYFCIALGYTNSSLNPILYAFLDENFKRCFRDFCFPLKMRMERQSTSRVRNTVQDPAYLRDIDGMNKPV
Outline: (§2)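 Membranes from cloned human receptors were incubated with compound and radioligand for 1 hour at room temperature. Bound ligand was collected on 0.3% PEI-soaked filters, washed with cold 50 mM Tris-HCl pH 7.4, and counted by scintillation. Percent inhibition was computed against DMSO totals and reference-ligand nonspecific wells.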

Human Melanocortin (MC3) = target: T3, Human Melanocortin (MC3) (Homo sapiens, UniProt P41968); assay: Radioligand binding, human melanocortin MC3 membranes, FlashPlate, [125I]-NDP-αMSH; conditions: compound at 10 μM, [125I]-NDP-αMSH
T3 construct: purchased Perkin Elmer Biosignal
T3 sequence (P41968 whole entry): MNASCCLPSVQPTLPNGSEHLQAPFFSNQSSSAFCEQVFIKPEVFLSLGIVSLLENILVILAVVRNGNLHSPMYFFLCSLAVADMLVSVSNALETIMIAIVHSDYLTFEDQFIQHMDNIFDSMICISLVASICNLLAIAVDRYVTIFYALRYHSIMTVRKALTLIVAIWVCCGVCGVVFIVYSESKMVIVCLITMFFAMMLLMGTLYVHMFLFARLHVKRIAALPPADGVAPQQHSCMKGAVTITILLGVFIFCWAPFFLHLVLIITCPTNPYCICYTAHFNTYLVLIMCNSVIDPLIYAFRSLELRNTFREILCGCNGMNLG
Outline: as §1

Human Melanocortin (MC4) = target: T4, Human Melanocortin (MC4) (Homo sapiens, UniProt P32245); assay: Radioligand binding, human melanocortin MC4 membranes, FlashPlate, [125I]-NDP-αMSH; conditions: compound at 10 μM, [125I]-NDP-αMSH
T4 construct: purchased Perkin Elmer Biosignal
T4 sequence (P32245 whole entry): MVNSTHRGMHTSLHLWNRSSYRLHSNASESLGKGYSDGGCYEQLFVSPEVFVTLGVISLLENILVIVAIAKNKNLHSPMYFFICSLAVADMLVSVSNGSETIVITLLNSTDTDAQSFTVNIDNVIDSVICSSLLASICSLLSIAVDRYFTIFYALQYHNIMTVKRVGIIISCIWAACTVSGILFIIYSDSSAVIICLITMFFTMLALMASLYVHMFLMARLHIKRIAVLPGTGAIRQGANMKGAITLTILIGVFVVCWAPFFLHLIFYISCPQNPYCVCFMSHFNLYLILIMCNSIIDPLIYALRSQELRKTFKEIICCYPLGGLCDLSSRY
Outline: as §1

Human melanocortin (MC5) = target: T5, Human melanocortin (MC5) (Homo sapiens, UniProt P33032); assay: Radioligand binding, human melanocortin MC5 membranes, FlashPlate, [125I]-NDP-αMSH; conditions: compound at 10 μM, [125I]-NDP-αMSH
T5 construct: purchased Perkin Elmer Biosignal
T5 sequence (P33032 whole entry): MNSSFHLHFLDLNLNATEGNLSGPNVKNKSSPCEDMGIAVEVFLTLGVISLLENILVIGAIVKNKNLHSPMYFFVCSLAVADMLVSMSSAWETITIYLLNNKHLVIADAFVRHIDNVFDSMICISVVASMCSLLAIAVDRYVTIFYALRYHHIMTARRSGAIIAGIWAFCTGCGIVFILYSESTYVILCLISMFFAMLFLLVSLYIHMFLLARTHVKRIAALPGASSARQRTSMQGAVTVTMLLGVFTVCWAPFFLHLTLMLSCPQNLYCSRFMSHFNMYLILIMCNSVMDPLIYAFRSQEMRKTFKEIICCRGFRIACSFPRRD
Outline: as §1

[1] = target: T6, Human melanin-concentrating hormone (MCH1) (Homo sapiens, UniProt Q99705); assay: Radioligand binding, human melanin-concentrating hormone MCH1 membranes, FlashPlate, [125I]-S36057; conditions: compound at 10 μM
T6 construct: purchased Perkin Elmer Biosignal
T6 sequence (Q99705 whole entry): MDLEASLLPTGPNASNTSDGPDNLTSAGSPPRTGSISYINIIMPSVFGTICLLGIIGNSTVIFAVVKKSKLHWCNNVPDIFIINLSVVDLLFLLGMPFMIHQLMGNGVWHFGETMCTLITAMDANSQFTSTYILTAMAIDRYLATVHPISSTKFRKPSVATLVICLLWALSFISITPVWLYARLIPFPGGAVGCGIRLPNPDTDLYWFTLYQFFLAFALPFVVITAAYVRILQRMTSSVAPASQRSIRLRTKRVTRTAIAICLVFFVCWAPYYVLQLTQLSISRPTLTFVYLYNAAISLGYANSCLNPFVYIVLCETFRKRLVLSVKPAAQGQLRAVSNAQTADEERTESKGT
Outline: as §1

Human μ-opioid (MOP) = target: T7, Human μ-opioid (MOP) (Homo sapiens, UniProt P35372); assay: Radioligand binding, human μ-opioid (MOP) membranes, FlashPlate, [3H]-Naloxone; conditions: compound at 10 μM, [3H]-Naloxone
T7 construct: purchased Perkin Elmer Biosignal
T7 sequence (P35372 whole entry): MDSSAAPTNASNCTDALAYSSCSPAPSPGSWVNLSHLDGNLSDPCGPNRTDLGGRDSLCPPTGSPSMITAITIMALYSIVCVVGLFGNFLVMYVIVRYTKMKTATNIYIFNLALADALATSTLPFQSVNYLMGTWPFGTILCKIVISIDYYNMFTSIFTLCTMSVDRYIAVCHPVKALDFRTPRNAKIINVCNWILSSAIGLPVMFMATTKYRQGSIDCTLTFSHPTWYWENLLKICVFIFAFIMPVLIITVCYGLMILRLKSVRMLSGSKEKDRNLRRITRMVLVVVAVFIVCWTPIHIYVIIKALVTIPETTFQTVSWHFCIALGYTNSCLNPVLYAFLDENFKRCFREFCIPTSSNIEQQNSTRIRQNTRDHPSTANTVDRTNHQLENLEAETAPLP
Outline: as §1

Human neurokinin (NK1) = target: T8, Human neurokinin (NK1) (Homo sapiens, UniProt P25103); assay: Radioligand binding, human neurokinin NK1 membranes, filtration, [125I]-Substance P; conditions: compound at 10 μM, [125I]-Substance P
T8 construct: purchased Perkin Elmer Biosignal
T8 sequence (P25103 whole entry): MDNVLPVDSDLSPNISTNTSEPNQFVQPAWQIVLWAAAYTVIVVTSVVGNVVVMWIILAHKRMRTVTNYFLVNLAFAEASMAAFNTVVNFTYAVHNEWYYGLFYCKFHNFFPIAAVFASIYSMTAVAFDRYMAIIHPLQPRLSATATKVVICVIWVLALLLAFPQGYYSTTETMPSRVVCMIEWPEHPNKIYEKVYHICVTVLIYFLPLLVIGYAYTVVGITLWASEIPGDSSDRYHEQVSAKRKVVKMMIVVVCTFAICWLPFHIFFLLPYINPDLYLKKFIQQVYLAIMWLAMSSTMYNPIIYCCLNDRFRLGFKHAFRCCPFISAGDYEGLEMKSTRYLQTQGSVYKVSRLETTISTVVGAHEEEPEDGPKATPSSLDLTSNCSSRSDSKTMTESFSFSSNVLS
Outline: as §2

[2] = target: T9, Human neuropeptide Y (NPY-Y1) (Homo sapiens, UniProt P25929); assay: Radioligand binding, human neuropeptide Y NPY-Y1 membranes, FlashPlate, [125I]-PYY; conditions: compound at 10 μM, [125I]-PYY
T9 construct: purchased Perkin Elmer Biosignal
T9 sequence (P25929 1-384): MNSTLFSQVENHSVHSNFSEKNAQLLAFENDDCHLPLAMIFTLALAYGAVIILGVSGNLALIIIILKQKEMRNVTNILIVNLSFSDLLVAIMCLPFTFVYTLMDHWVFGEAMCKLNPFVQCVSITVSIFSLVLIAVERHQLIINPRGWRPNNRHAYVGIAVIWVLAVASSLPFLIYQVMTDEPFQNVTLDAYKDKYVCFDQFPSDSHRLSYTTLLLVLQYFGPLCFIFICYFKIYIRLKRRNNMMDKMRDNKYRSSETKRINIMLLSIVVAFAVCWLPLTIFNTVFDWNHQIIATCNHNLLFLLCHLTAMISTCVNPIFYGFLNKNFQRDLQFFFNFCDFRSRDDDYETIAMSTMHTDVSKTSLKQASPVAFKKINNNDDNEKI
Outline: as §1

Human opioid (ORL1) = target: T10, Human opioid (ORL1) (Homo sapiens, UniProt P41146); assay: Radioligand binding, human opioid ORL1 membranes, FlashPlate, [125I]-Nociceptin; conditions: compound at 10 μM, [125I]-Nociceptin
T10 construct: purchased Perkin Elmer Biosignal
T10 sequence (P41146 whole entry): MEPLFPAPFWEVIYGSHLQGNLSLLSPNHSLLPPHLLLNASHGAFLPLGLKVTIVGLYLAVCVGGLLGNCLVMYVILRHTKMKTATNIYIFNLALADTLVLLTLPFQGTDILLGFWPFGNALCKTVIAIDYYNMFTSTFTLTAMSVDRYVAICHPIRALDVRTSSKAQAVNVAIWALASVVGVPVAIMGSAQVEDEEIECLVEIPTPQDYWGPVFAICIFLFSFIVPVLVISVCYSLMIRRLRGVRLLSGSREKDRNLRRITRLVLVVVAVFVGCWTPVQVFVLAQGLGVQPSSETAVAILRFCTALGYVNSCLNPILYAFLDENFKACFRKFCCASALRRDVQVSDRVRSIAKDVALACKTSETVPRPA
Outline: as §1

Mouse urotensin (mUR2) = target: T11, Mouse urotensin (mUR2) (Mus musculus, UniProt Q8VIH9); assay: Radioligand binding, mouse urotensin mUR2 membranes, FlashPlate, [125I]-Urotensin II; conditions: compound at 10 μM, [125I]-Urotensin II
T11 construct: purchased Perkin Elmer Biosignal
T11 sequence (Q8VIH9 1-385): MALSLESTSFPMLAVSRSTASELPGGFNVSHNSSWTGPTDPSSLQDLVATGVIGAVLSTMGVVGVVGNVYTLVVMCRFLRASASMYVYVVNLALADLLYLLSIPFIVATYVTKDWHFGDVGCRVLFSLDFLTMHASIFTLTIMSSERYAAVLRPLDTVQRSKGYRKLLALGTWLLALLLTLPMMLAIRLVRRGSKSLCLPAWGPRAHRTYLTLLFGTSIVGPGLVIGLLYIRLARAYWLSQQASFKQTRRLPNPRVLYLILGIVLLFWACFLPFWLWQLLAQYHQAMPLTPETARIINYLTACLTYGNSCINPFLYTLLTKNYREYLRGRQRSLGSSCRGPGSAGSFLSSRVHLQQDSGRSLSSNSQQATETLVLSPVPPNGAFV
Outline: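 Cloned mouse urotensin (mUR2) receptor membranes from Perkin Elmer Biosignal were immobilized in FlashPlate microplates using a proprietary coating. Each well got 19.5 μl buffer, then 0.5 μl of DMSO, reference ligand, or compound. Adding 5 μl of [125I]-Urotensin II, diluted to 5× final concentration in binding buffer, started binding. Plates were sealed with TopSeal-A and incubated 1 hour at room temperature in the dark. Wells were counted for 30 seconds each on a TopCount after a 60-second delay, and percentage inhibition was calculated.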

T1 sequence (P41143 whole entry): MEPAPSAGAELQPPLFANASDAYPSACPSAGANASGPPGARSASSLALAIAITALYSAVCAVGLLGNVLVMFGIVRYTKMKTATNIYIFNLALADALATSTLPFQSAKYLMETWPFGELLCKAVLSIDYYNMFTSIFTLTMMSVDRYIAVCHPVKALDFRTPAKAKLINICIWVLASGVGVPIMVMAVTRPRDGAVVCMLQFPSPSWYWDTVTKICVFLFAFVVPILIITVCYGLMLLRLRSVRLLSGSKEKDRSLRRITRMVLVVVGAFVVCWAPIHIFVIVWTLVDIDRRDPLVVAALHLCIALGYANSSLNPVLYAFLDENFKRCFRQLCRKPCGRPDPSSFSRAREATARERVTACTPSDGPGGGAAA

## CSC1OC(COCc2ccc(-c3ccccc3)cc2)C(O)C(OCc2ccccc2)C1NC(=O)CCNC(=N)N (stereo not drawn) [compound 257]
Human δ-opioid (DOP); FlashPlate
  A1: inhibition of radioligand binding: − (“−” indicates less than 50% inhibition at 10 μM)
Human κ-Opioid (KOP); filtration
  A2: inhibition of radioligand binding: − (“−” indicates less than 50% inhibition at 10 μM)
Human Melanocortin (MC3); FlashPlate
  A3: inhibition of radioligand binding: − (“−” indicates less than 50% inhibition at 10 μM)
Human Melanocortin (MC4); FlashPlate
  A4: inhibition of radioligand binding: + (“+” indicates greater than 50% inhibition at 10 μM)
Human melanocortin (MC5); FlashPlate
  A5: inhibition of radioligand binding: − (“−” indicates less than 50% inhibition at 10 μM)
[1]; [125I]-S36057, FlashPlate
  A6: inhibition of radioligand binding: − (“−” indicates less than 50% inhibition at 10 μM)
Human μ-opioid (MOP); FlashPlate
  A7: inhibition of radioligand binding: − (“−” indicates less than 50% inhibition at 10 μM)
Human neurokinin (NK1); filtration
  A8: inhibition of radioligand binding: + (“+” indicates greater than 50% inhibition at 10 μM)
[2]; FlashPlate
  A9: inhibition of radioligand binding: − (“−” indicates less than 50% inhibition at 10 μM)
Human opioid (ORL1); FlashPlate
  A10: inhibition of radioligand binding: − (“−” indicates less than 50% inhibition at 10 μM)
Mouse urotensin (mUR2); FlashPlate
  A11: inhibition of radioligand binding: − (“−” indicates less than 50% inhibition at 10 μM)

## COC[C@H]1OC(OCc2ccc(Cl)cc2)[C@H](NC(=O)CCNC(=N)N)[C@@H](OCc2cccc(O)c2)[C@@H]1O (stereo partly drawn) [compound 138]
Human δ-opioid (DOP)
  A1 radioligand binding, percentage inhibition: + (“+” indicates greater than 50% inhibition at 10 μM)
Human κ-Opioid (KOP)
  A2 radioligand binding, percentage inhibition: − (“−” indicates less than 50% inhibition at 10 μM)
Human Melanocortin (MC3)
  A3 radioligand binding, percentage inhibition: − (“−” indicates less than 50% inhibition at 10 μM)
Human Melanocortin (MC4)
  A4 radioligand binding, percentage inhibition: − (“−” indicates less than 50% inhibition at 10 μM)
Human melanocortin (MC5)
  A5 radioligand binding, percentage inhibition: − (“−” indicates less than 50% inhibition at 10 μM)
[1]; [125I]-S36057
  A6 radioligand binding, percentage inhibition: − (“−” indicates less than 50% inhibition at 10 μM)
Human μ-opioid (MOP)
  A7 radioligand binding, percentage inhibition: + (“+” indicates greater than 50% inhibition at 10 μM)
Human neurokinin (NK1)
  A8 radioligand binding, percentage inhibition: − (“−” indicates less than 50% inhibition at 10 μM)
[2]
  A9 radioligand binding, percentage inhibition: − (“−” indicates less than 50% inhibition at 10 μM)
Human opioid (ORL1)
  A10 radioligand binding, percentage inhibition: − (“−” indicates less than 50% inhibition at 10 μM)
Mouse urotensin (mUR2)
  A11 radioligand binding, percentage inhibition: − (“−” indicates less than 50% inhibition at 10 μM)

## CSC1O[C@H](COCc2ccccc2)[C@@H](O)[C@@H](OCc2ccc(-c3ccccc3)cc2)[C@H]1NC(=O)CNC(=N)N (stereo partly drawn) [compound 284]
Human δ-opioid (DOP)
  A1: inhibition of radioligand binding, human δ-opioid (DOP): − (“−” indicates less than 50% inhibition at 10 μM)
Human κ-Opioid (KOP)
  A2: inhibition of radioligand binding, human κ-opioid (KOP): − (“−” indicates less than 50% inhibition at 10 μM)
Human Melanocortin (MC3)
  A3: inhibition of radioligand binding, human melanocortin (MC3): − (“−” indicates less than 50% inhibition at 10 μM)
Human Melanocortin (MC4)
  A4: inhibition of radioligand binding, human melanocortin (MC4): + (“+” indicates greater than 50% inhibition at 10 μM)
Human melanocortin (MC5)
  A5: inhibition of radioligand binding, human melanocortin (MC5): + (“+” indicates greater than 50% inhibition at 10 μM)
[1]; [125I]-S36057
  A6: inhibition of radioligand binding, human melanin-concentrating hormone (MCH1): − (“−” indicates less than 50% inhibition at 10 μM)
Human μ-opioid (MOP)
  A7: inhibition of radioligand binding, human μ-opioid (MOP): − (“−” indicates less than 50% inhibition at 10 μM)
Human neurokinin (NK1)
  A8: inhibition of radioligand binding, human neurokinin (NK1): + (“+” indicates greater than 50% inhibition at 10 μM)
[2]
  A9: inhibition of radioligand binding, human neuropeptide Y (NPY-Y1): − (“−” indicates less than 50% inhibition at 10 μM)
Human opioid (ORL1)
  A10: inhibition of radioligand binding, human opioid (ORL1): − (“−” indicates less than 50% inhibition at 10 μM)
Mouse urotensin (mUR2)
  A11: inhibition of radioligand binding, mouse urotensin (mUR2): − (“−” indicates less than 50% inhibition at 10 μM)
